We go through three compounds from patent US7670613B2, “Androgen modulators” (Pfizer Inc., priority 2004, dated 2010).

This experiment addresses T1, hAR (Homo sapiens, UniProt P10275).
T1 construct: made in house; host or cells: baculovirus/Sf9 insect cells
T1 sequence (P10275 1-920): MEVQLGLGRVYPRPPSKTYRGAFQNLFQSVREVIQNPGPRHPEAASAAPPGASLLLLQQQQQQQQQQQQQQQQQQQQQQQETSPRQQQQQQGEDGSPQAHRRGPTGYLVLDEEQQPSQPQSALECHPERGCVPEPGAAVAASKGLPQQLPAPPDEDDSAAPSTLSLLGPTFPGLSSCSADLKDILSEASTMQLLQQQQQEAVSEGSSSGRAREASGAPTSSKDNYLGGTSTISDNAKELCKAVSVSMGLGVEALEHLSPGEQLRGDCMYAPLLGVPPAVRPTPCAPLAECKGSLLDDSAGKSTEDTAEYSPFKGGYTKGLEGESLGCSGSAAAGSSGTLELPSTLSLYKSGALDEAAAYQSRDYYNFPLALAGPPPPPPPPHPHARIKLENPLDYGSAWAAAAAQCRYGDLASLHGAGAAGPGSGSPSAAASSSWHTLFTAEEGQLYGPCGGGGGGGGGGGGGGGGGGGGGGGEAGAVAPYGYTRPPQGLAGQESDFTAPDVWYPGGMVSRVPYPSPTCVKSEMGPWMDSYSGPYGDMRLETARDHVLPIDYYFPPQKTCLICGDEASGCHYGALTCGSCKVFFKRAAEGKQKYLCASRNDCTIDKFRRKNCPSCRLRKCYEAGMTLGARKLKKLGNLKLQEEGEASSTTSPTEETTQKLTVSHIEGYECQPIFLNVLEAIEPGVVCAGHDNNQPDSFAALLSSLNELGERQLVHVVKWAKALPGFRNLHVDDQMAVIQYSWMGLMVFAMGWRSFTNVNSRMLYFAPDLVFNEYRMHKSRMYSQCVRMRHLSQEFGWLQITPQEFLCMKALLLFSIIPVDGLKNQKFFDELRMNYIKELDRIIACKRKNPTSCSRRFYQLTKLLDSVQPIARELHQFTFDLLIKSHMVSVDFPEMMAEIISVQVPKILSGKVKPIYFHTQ
The experiment in a line: Competitive binding analysis on baculovirus/Sf9 generated hAR extracts with 3H-DHT tracer. As to conditions: AR Binding IC50, hAR extract, 1 nM 3H-DHT, one hour at 4° C.; mean of multiple tests.
As for `N#Cc1ccc(O[C@@H]2CCCC[C@H]2C#N)cc1C(F)(F)F` (single isomer, unassigned) [Example 72, (trans)-(−)-4-(2-Cyano-cyclohexyloxy)-2-trifluoromethyl-benzonitrile], the IC50 turned out to be 43 nM. As for `N#Cc1ccc(O[C@@H]2CCCCC2C#N)cc1C(F)(F)F` (stereo in doubt) [Example 14, -4-(2-Cyano-cyclohexyloxy)-2-trifluoromethyl-benzonitrile], the IC50 turned out to be 58 nM.

With `CC1CCCCC1Oc1ccc(C#N)c(C(F)(F)F)c1` (stereo not drawn) [Example 8, 4-(2-Methyl-cyclohexyloxy)-2-trifluoromethyl-benzonitrile], the IC50 amounted to 106 nM.

What is called IC50 is the point on the concentration scale where inhibition reaches its midpoint.
